Test systems include CAKI-1 renal; UO-31 renal; MDA-MB-435; A549 NSCLC; HCT-15 colon; SNB-19 CNS; M14 melanoma; SN12C renal; RPMI-8226 leukemia; SF-295 CNS.
Holding throughout (assay): inhibition of tumour cell growth, NCI panel, 48 h

Several values for one entry are separate records, joined by “and”; a condition that tells them apart may be missing. Identical values can stand only once.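 Assay format: 96-well plates, 48-hour exposure. The concentration for 50% growth inhibition is given as GI50. TGI: total growth inhibition.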 Some results are limits rather than exact numbers.

`O=C(Nc1ccc(Cl)cc1F)c1ccccc1O`: the GI50 in the assay on CAKI-1 renal is 2.37 µM; in the assay on UO-31 renal, 1.25 µM; in the assay with MDA-MB-435, 3370 nM; in the assay with A549 NSCLC it was 3.6 µM; with HCT-15 colon it was 1920 nM; with SNB-19 CNS, 3230 nM. Further, the GI50 in the assay with M14 melanoma is 3450 nM; in the assay with SN12C renal, 2240 nM; with RPMI-8226 leukemia, 1970 nM; in the assay on SF-295 CNS, 2350 nM. The TGI in the assay with CAKI-1 renal is 13.6 µM; with UO-31 renal, 6.65 µM; in the assay with MDA-MB-435, 30.7 µM; in the assay on A549 NSCLC, more than 100 µM; with HCT-15 colon it was 14.2 µM; in the assay on SNB-19 CNS, more than 100 µM. The TGI with M14 melanoma is 16.7 µM; with SN12C renal, 8.71 µM; in the assay with RPMI-8226 leukemia it was 7.32 µM; in the assay on SF-295 CNS, 5.87 µM.
As to `Cn1cc(CO)c2c1C(=O)C=C(N1CC1)C2=O`, the GI50 in the assay on CAKI-1 renal was less than 0.01 µM; with MDA-MB-435, less than 10 nM; in the assay on A549 NSCLC, less than 0.01 µM; in the assay on HCT-15 colon it was less than 10 nM; with SNB-19 CNS, less than 19.7 nM; in the assay on M14 melanoma it was less than 10 nM. Moreover, the GI50 with SN12C renal, with RPMI-8226 leukemia and in the assay on SF-295 CNS was less than 10 nM in each case. Moreover, the TGI is less than 0.0125 µM in the assay with CAKI-1 renal; 0.04 µM in the assay on MDA-MB-435; 3.68 µM in the assay on A549 NSCLC; 0.0818 µM in the assay on HCT-15 colon; 0.862 µM with SNB-19 CNS; less than 0.01 µM in the assay on M14 melanoma. The TGI turned out to be 0.027 µM with SN12C renal and 0.192 µM with RPMI-8226 leukemia.
Regarding `CC(CCC=O)CCOCc1ccccc1` (stereo not drawn), the TGI with CAKI-1 renal was more than 60.8 µM; in the assay on UO-31 renal, more than 100 µM; in the assay with MDA-MB-435, more than 100 µM; in the assay on A549 NSCLC, more than 100 µM; in the assay on HCT-15 colon, more than 100 µM; in the assay with SNB-19 CNS, more than 100 µM. The TGI with M14 melanoma, in the assay on SN12C renal, with RPMI-8226 leukemia and in the assay with SF-295 CNS was more than 100 µM each time.
In the case of `O=c1c2sc(=S)n(-c3ccc(F)cc3)c2ncn1Cc1ccc(F)cc1F`, the GI50 was 37.7 µM with CAKI-1 renal; more than 100 µM in the assay with UO-31 renal; more than 100000 nM in the assay on MDA-MB-435; 92.1 µM in the assay with A549 NSCLC; more than 100000 nM in the assay on HCT-15 colon; 75800 nM with SNB-19 CNS. For the same compound, the GI50 was more than 100000 nM in the assay with M14 melanoma, more than 100000 nM in the assay with SN12C renal, more than 100000 nM with RPMI-8226 leukemia and 81900 nM in the assay on SF-295 CNS. Further, the TGI with CAKI-1 renal, with UO-31 renal, in the assay with MDA-MB-435, in the assay on A549 NSCLC, in the assay with HCT-15 colon and with SNB-19 CNS was more than 100 µM in each case. Besides, the TGI with M14 melanoma, with SN12C renal, with RPMI-8226 leukemia and with SF-295 CNS was more than 100 µM throughout.
Consider `C=C1C(=O)O[C@@H]2C[C@@H]1CC/C(C)=C/CC/C(C)=C/CC[C@@]2(C)O`, for which the GI50 was 10.7 µM in the assay on CAKI-1 renal; 16.3 µM with UO-31 renal; 5070 nM with MDA-MB-435; 18.2 µM with A549 NSCLC; 18200 nM with HCT-15 colon; 28400 nM in the assay with SNB-19 CNS. For the same compound, the GI50 with M14 melanoma was 2040 nM; in the assay on RPMI-8226 leukemia, 2090 nM; in the assay on SF-295 CNS, 16600 nM. The TGI in the assay with CAKI-1 renal came to 23.7 µM; in the assay on UO-31 renal, 33.4 µM; in the assay on MDA-MB-435, 18.5 µM; in the assay on A549 NSCLC, 41.2 µM; in the assay with HCT-15 colon it was 51.4 µM; in the assay on SNB-19 CNS it was 76.2 µM. Besides, the TGI with M14 melanoma came out at 8.37 µM; in the assay on RPMI-8226 leukemia, 5.09 µM; with SF-295 CNS, 32.2 µM.
On to `COc1cnc2c(c1)C(=O)c1c-2n(CCCNC(C)C)c(=O)c2cc(Cl)ccc12`, for which the GI50 was 0.0652 µM in the assay with CAKI-1 renal; 0.498 µM in the assay on UO-31 renal; 1140 nM in the assay with MDA-MB-435; 0.0902 µM with A549 NSCLC; 1080 nM in the assay on HCT-15 colon; 439 nM in the assay on SNB-19 CNS. Moreover, the GI50 was 417 nM with SN12C renal, 1210 nM with RPMI-8226 leukemia and 52.3 nM with SF-295 CNS. Besides, the TGI came out at 2.15 µM with CAKI-1 renal; 2.04 µM in the assay with UO-31 renal; 2.42 µM in the assay on MDA-MB-435; 2.07 µM in the assay with A549 NSCLC; 2.78 µM in the assay with HCT-15 colon; 2.61 µM in the assay with SNB-19 CNS. The TGI in the assay with SN12C renal was 2.11 µM; with RPMI-8226 leukemia, 3.35 µM; with SF-295 CNS, 1.43 µM.
As for `[Cl][Hg][c]1cc(Br)cc(Br)c1`, the GI50 was 4.64 µM in the assay with UO-31 renal; 1800 nM in the assay with MDA-MB-435; 12.9 µM with A549 NSCLC; 1600 nM in the assay on HCT-15 colon; 1200 nM in the assay with SNB-19 CNS; 2120 nM in the assay with M14 melanoma. Besides, the GI50 in the assay on SN12C renal was 1610 nM; in the assay with RPMI-8226 leukemia it was 1810 nM; in the assay on SF-295 CNS, 3310 nM. Besides, the TGI amounted to 15.5 µM in the assay on UO-31 renal; 3.82 µM in the assay on MDA-MB-435; 30.4 µM in the assay with A549 NSCLC; 3.22 µM with HCT-15 colon; 2.51 µM with SNB-19 CNS; 6.32 µM in the assay with M14 melanoma. Besides, the TGI in the assay on SN12C renal stood at 3.56 µM; in the assay on RPMI-8226 leukemia, 4.86 µM; in the assay with SF-295 CNS, 15.7 µM.
Take `O=C(Nc1nc2ccc(C(F)(F)F)cc2s1)c1cc(Cl)ccc1O`: the GI50 in the assay with UO-31 renal was 1.19 µM; with MDA-MB-435, 1690 nM; with A549 NSCLC it was 1.51 µM; with HCT-15 colon, 346 nM; with SNB-19 CNS it was 629 nM; in the assay on M14 melanoma, 935 nM. Moreover, the GI50 with SN12C renal is 353 nM; in the assay with RPMI-8226 leukemia, 276 nM; with SF-295 CNS it was 831 nM. For the same compound, the TGI in the assay on UO-31 renal was 8.79 µM; in the assay with MDA-MB-435, more than 100 µM; in the assay with A549 NSCLC it was more than 100 µM; with HCT-15 colon, 12.9 µM; with SNB-19 CNS, more than 100 µM; with M14 melanoma it was 23.9 µM. Besides, the results for the TGI in the assay on SN12C renal, in the assay on RPMI-8226 leukemia and with SF-295 CNS were more than 100 µM, 2 µM and 3.16 µM, respectively.
As to `O=C1c2cccc(NCCCNCCO)c2C(=O)c2cccc(NCCCNCCO)c21`, the TGI in the assay with UO-31 renal was 22.2 µM and 21.4 µM; in the assay with MDA-MB-435, 3.06 µM; with A549 NSCLC, 7.34 µM and 4.62 µM; with HCT-15 colon, 19.8 µM and 23.3 µM; in the assay with SNB-19 CNS, 5.58 µM; with M14 melanoma, 4.3 µM and 8.78 µM. The TGI with SN12C renal is 6 µM and 5.31 µM; in the assay on RPMI-8226 leukemia, 5.58 µM and 6.85 µM; in the assay on SF-295 CNS, 18.6 µM and 7.37 µM. The GI50 in the assay with SF-295 CNS is 6320 nM and 2350 nM.
In the case of `COc1ccc(C(C)=O)cc1N1C(=O)C2C(C1=O)C1(c3ccccc3)C(=O)C2(c2ccccc2)C(c2ccc(C)cc2)=C1c1ccc(C)cc1` (stereo not drawn), the GI50 was 17.6 µM in the assay on CAKI-1 renal; more than 100 µM with UO-31 renal; more than 100000 nM in the assay with MDA-MB-435; more than 100 µM with A549 NSCLC; more than 100000 nM in the assay with HCT-15 colon; more than 100000 nM in the assay with SNB-19 CNS. Moreover, the GI50 in the assay with SN12C renal, with RPMI-8226 leukemia and in the assay with SF-295 CNS was more than 100000 nM each time. For the same compound, the TGI in the assay on CAKI-1 renal, with UO-31 renal, in the assay with MDA-MB-435, with A549 NSCLC, in the assay with HCT-15 colon and with SNB-19 CNS was more than 100 µM throughout. In addition, the TGI in the assay on SN12C renal, in the assay with RPMI-8226 leukemia and in the assay with SF-295 CNS was more than 100 µM in each case.
As to `Cn1c2ccccc2c2c3c(c4c5cc(Br)ccc5n(C)c4c21)C(=O)N(O)C3=O`, the GI50 was 319 nM in the assay with MDA-MB-435; 0.262 µM with A549 NSCLC; 199 nM in the assay on HCT-15 colon; 53.6 nM with SNB-19 CNS; 217 nM with SF-295 CNS. Also, the TGI in the assay on MDA-MB-435 was more than 100 µM; with A549 NSCLC it was more than 100 µM; in the assay with HCT-15 colon, more than 100 µM; in the assay with SNB-19 CNS it was more than 100 µM; in the assay with SF-295 CNS, 0.981 µM.
Take `OC[C@H]1C[C@](O)(c2ccc(Cl)cc2)[C@@H](c2ccc(Cl)cc2)O1`: the GI50 is 27 µM in the assay on CAKI-1 renal; 19.4 µM in the assay with UO-31 renal; 22900 nM in the assay on MDA-MB-435; 29.6 µM in the assay with A549 NSCLC; 31700 nM in the assay on HCT-15 colon; 37800 nM in the assay on SNB-19 CNS. In addition, the GI50 was 17000 nM in the assay on SN12C renal, 13700 nM in the assay on RPMI-8226 leukemia and 30100 nM with SF-295 CNS. For the same compound, the TGI in the assay on CAKI-1 renal was 79.3 µM; in the assay on UO-31 renal, 50.3 µM; in the assay on MDA-MB-435, 47.8 µM; with A549 NSCLC, 78.7 µM; in the assay with HCT-15 colon, more than 100 µM; with SNB-19 CNS, more than 100 µM. For the same compound, the TGI in the assay with SN12C renal stood at 35.8 µM; with RPMI-8226 leukemia, 34.9 µM; in the assay on SF-295 CNS, 84.8 µM.
Turning to `CC(=O)c1cccc(NC(=O)C(=O)NNc2n[nH]c(=S)n2N)c1`, the TGI in the assay with CAKI-1 renal is 34.4 µM; in the assay with UO-31 renal it was 22.6 µM; in the assay on A549 NSCLC, 14.5 µM; in the assay on HCT-15 colon, 15.9 µM; in the assay with SNB-19 CNS, 21.2 µM; with M14 melanoma it was 6.15 µM. For the same compound, the results for the TGI with SN12C renal, with RPMI-8226 leukemia and in the assay with SF-295 CNS were 20.3 µM, 58.8 µM and 16.9 µM, respectively.
In the case of `C=C1C(=O)OC2CCN3CC=C(COC(=O)C(C)(O)C4(CO4)C1C)C23` (stereo not drawn), the TGI with CAKI-1 renal, in the assay with UO-31 renal, with MDA-MB-435, in the assay with A549 NSCLC, with HCT-15 colon and in the assay on SNB-19 CNS was more than 100 µM each time. Further, the TGI with M14 melanoma, in the assay on SN12C renal and with SF-295 CNS was more than 100 µM each time.

The record behind these values is PubChem BioAssay (NCI).
